Like-named read-outs stand apart in the source and are kept apart here.
Legend:
[1] = test system: lung cancer cell line A549; test: Anti-tumor activity in vitro, MTT method; conditions: Homo sapiens, A549, 48 h, read-out: A549 (IC50/μM)
Protocol: (§1) MTT method: the dehydrogenase associated with NADP in the mitochondria of living cell is capable of reducing exogenous MTT into insoluble bluish violet crystal (Formazan), which is precipitated in the cell. […] DMSO or Triple liquid (10% SDS-5% isobutanol-0.01 mol/L HCl) is used to dissolve the crystal in the cell. The OD determined at 570 nm by a microplate reader can reflect the amount of the living cell indirectly.
(§2) The crystal is dissolved with DMSO and the detection is performed on a microplate reader.

S180 grafting tumor = test: Inhibition to S180 grafting tumor in animal; assay type: in vivo, ICR mouse; conditions: 15 mg/kg intravenously once a day, 7 administrations
Protocol: ICR mouse was inoculated with solid tumor according to tumor grafting process (tumor piece was weighed under sterile condition, homogenized with glass tissue homogenizer, placed within a sterile container, to which was added physiological saline to prepare 1:3 cell suspension. The container was placed on ice and aspirated and the cells were mixed homogeneously before each aspiration. Each mouse was inoculated subcutaneously 0.2 mL at right fore axilla). […] The mice were administered intravenously, once a day and 7 administrations in total. The administration volume was 0.4 ml/20 g. The mice bearing tumor were sacrificed 8 days after inoculation (d8). The tumor tissue was separated and weighed. The data was analyzed with statistics method (t-test).
Dose setting: 5 groups in total.

Aurora A = molecular target: T1, Aurora A (Homo sapiens, UniProt O14965); test: Inhibitory activity to Aurora A (FRET); assay type: biochemical; conditions: read-out: Aurora A inhibition % (1 × 10^−6 mol/L)
T1 construct: purchased
T1 sequence (O14965 1-403): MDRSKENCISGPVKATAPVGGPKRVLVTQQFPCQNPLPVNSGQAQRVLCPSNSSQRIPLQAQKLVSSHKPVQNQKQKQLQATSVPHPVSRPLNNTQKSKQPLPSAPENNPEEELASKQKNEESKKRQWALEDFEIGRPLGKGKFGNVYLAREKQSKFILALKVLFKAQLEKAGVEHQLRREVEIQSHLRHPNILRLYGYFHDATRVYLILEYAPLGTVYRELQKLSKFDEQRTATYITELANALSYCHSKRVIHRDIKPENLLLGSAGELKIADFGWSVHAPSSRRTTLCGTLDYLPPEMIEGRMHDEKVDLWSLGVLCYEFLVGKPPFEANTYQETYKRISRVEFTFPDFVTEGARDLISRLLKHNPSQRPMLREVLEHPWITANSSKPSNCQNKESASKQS
In short: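 FRET kinase assay of Aurora A with peptide substrate in HEPES pH 7.5, BRIJ-35, MgCl2, EDTA; 1 h reaction, then 1 h development before stop. Ex 400 nm, emission 445 nm (coumarin) and 520 nm (fluorescein); 0% and 100% phosphorylation controls set inhibition scale.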

[2] = test system: stomach cancer cell line MGC803; test: Anti-tumor activity in vitro, MTT method; conditions: Homo sapiens, MGC-803, 48 h, read-out: MGC803 (IC50/μM)
Protocol: as §1, §2

leukemia cell line NB4 = test: Anti-tumor activity in vitro, MTT method; conditions: 48 h, read-out: NB4 (IC50/μM)
Protocol: as §1, §2

[3] = test system: liver cancer cell line HEPG2; test: Anti-tumor activity in vitro, MTT method; conditions: Homo sapiens, HepG2, 48 h, read-out: HEPG2 (IC50/μM)
Protocol: as §1, §2

[4] = test system: stomach cancer cell line BSG823; test: Anti-tumor activity in vitro, MTT method; conditions: 48 h, read-out: BSG823 (IC50/μM)
Protocol: as §1, §2

[5] = test system: breast cancer cell line MCF-7; test: Anti-tumor activity in vitro, MTT method; conditions: Homo sapiens, MCF7, 48 h, read-out: MCF7 (IC50/μM)
Protocol: as §1, §2

[6] = test system: umbilical cord vein endothelium cell line HUVEC; test: Anti-tumor activity in vitro, MTT method; conditions: Homo sapiens, 48 h, read-out: HUVEC (IC50/μM)
Protocol: as §1, §2

[7] = test system: colon cancer cell line HCT116; test: Anti-tumor activity in vitro, MTT method; assay type: cell-based; conditions: Homo sapiens, HCT-116, 48 h
[8] = test system: liver cancer cell line 7721; test: Anti-tumor activity in vitro, MTT method; assay type: cell-based; conditions: 48 h, read-out: 7721 (IC50/μM)
lung cancer cell H1299 = test: Anti-tumor activity in vitro, MTT method; assay type: cell-based; conditions: Homo sapiens, NCI-H1299, 48 h, read-out: H1299 (IC50/μM)
leukemia cell line K562 = test: Anti-tumor activity in vitro, MTT method; conditions: Homo sapiens, K562, 48 h, read-out: K562 (IC50/μM)
Protocol: as §1, §2

[9] = test system: resistant breast cancer cell line MCF-7; test: Anti-tumor activity in vitro, MTT method; conditions: Homo sapiens, MCF7, 48 h, read-out: Resistant MCF7 (IC50/μM)
Protocol: as §1, §2

[10] = test system: breast cancer cell line MDA231; test: Anti-tumor activity in vitro, MTT method; conditions: Homo sapiens, MDA-MB-231, 48 h, read-out: MDA231 (IC50/μM)
Protocol: as §1, §2

## O=C(NC1CCNCC1)c1n[nH]cc1NC(=O)c1c(Cl)cccc1Cl [AT-7519, reference compound]
[1]
  IC50: 53.5 µM
S180 grafting tumor
  Body weight After administration: 23.83 ± 3.39 g
S180 grafting tumor; d8
  Tumor inhibition: 32.45%
  Tumor weight: 0.80 ± 0.27 g
Aurora A
  inhibition at 1 µM: 38%
[2]
  IC50: 1.93 µM
Leukemia cell line NB4
  IC50: 0.62 µM
[3]
  IC50: 53.6 µM
[4]
  IC50: 16.7 µM
[5]
  IC50: 2.04 µM
[6]
  IC50: 5.67 µM
[7]; read-out: HCT116 (IC50/μM)
  IC50: 2.63 µM
[7]; read-out: HCT-116 (IC50/μM)
  IC50: 21.2 µM
[8]
  IC50: > 200 µM
Lung cancer cell H1299
  IC50: 9.32 µM
Leukemia cell line K562
  IC50: 3.24 µM
[9]
  IC50: 22.1 µM
[10]
  IC50: 2.58 µM
